Results from ChEMBL document CHEMBL5579845, “Ophiobolin A derivatives with enhanced activities under tumor-relevant acidic conditions” (2024).

Columns and labels:
[1] = Antiproliferative activity against human GBM43 cells cultured under pH 7.5 assessed as reduction in cell viability by measuring growth inhibition incubated for 48 hrs by MTT assay; type: functional
[2] = Antiproliferative activity against human GBM43 cells cultured under pH 6.5 assessed as reduction in cell viability by measuring growth inhibition incubated for 48 hrs by MTT assay; type: functional
U-87 MG = assay: Antitumor activity against human U-87 MG cells stably expressing luciferase reporter xenografted in female athymic nude mouse assessed as median survival time at 24 mg/kg, iv administered for six times starting from day 12 post tumor development and measured upto 60 days post tumor development; type: functional, U-87MG ATCC; conditions: time <= 48 day
[3] = Potency index, ratio of ophiobolin A GI50 to test compound GI50 for antiproliferative activity against human GBM43 cells cultured under pH 6.5 assessed as reduction in cell viability by measuring growth inhibition incubated for 48 hrs by MTT assay; type: functional

SMILES: CC(C)=C[C@H]1C[C@H](C)[C@]2(CC[C@]3(C)C[C@H]4[C@H](C(=O)C[C@@]4(C)O)/C(=C/OCCF)[C@H](O)C[C@H]32)O1
- GI50 [1]: 2770 nM
- GI50 [2]: 1500 nM

SMILES: COc1cccc2c1C(=O)c1c(O)c3c(c(O)c1C2=O)C[C@@](O)(/C(CO)=N/NC(=O)CCCCCN1C(=O)C=CC1=O)C[C@@H]3O[C@H]1C[C@H](N)[C@H](O)[C@H](C)O1 [ALDOXORUBICIN]
- MST (U-87 MG): 62 days

SMILES: CC(C)=C[C@H]1C[C@H](C)[C@]2(CC[C@]3(C)C[C@H]4[C@H](C(=O)C[C@@]4(C)O)/C(C(O)OCCCl)=C\C[C@H]32)O1 (some centres not stated)
- GI50 [1]: 2770 nM
- GI50 [2]: 750 nM

SMILES: CC(C)=C[C@H]1C[C@H](C)[C@]2(CC[C@]3(C)C[C@H]4[C@H](C(=O)C[C@@]4(C)O)/C(=C/OCCCl)[C@H](O)C[C@H]32)O1
- GI50 [1]: 1070 nM
- GI50 [2]: 650 nM

SMILES: CC(C)=C[C@H]1C[C@H](C)[C@]2(CC[C@]3(C)C[C@H]4[C@H](C(=O)C[C@@]4(C)O)/C(C(O)OCCBr)=C\C[C@H]32)O1 (some centres not stated)
- GI50 [1]: 270 nM
- GI50 [2]: 150 nM
- RatioGI50 [3]: 2

SMILES: CC(C)=C[C@H]1C[C@H](C)[C@]2(CC[C@]3(C)C[C@H]4[C@H](C(=O)C[C@@]4(C)O)/C(C(O)OCCF)=C\C[C@H]32)O1 (some centres not stated)
- GI50 [1]: 2890 nM
- GI50 [2]: 1700 nM

SMILES: CO[C@@H]1O[C@@]2(OC)C[C@@](C)(O)[C@H]3C[C@@]4(C)CC[C@@]5(O[C@@H](C=C(C)C)C[C@@H]5C)[C@@H]4C/C=C/1[C@H]32
- GI50 [2]: 1460 nM

SMILES: CC(C)=C[C@H]1C[C@H](C)[C@]2(CC[C@]3(C)C[C@H]4[C@H](C(=O)C[C@@]4(C)O)/C(=C/OCC(F)(F)F)[C@H](O)C[C@H]32)O1
- GI50 [2]: 830 nM

SMILES: CC(C)=C[C@H]1C[C@H](C)[C@]2(CC[C@]3(C)C[C@H]4[C@H](C(=O)C[C@@]4(C)O)/C(C=O)=C\C[C@H]32)O1 [OPHIOBOLIN A]
- GI50 [1]: 220 nM
- GI50 [2]: 290 nM

SMILES: COCCOC(O)/C1=C/C[C@@H]2[C@](C)(CC[C@@]23O[C@@H](C=C(C)C)C[C@@H]3C)C[C@H]2[C@@H]1C(=O)C[C@@]2(C)O (some centres not stated)
- GI50 [2]: 1090 nM

SMILES: CC(C)=C[C@H]1C[C@H](C)[C@]2(CC[C@]3(C)C[C@H]4[C@H](C(=O)C[C@@]4(C)O)/C(C(O)OC(C)C)=C\C[C@H]32)O1 (some centres not stated)
- GI50 [2]: 340 nM

SMILES: CC(C)=C[C@H]1C[C@H](C)[C@]2(CC[C@]3(C)C[C@H]4[C@H](C(=O)C[C@@]4(C)O)/C(=C/OCCBr)[C@H](O)C[C@H]32)O1
- GI50 [1]: 490 nM
- GI50 [2]: 140 nM
- RatioGI50 [3]: 2

SMILES: CO[C@H]1O[C@@]2(OC)C[C@@](C)(O)[C@H]3C[C@@]4(C)CC[C@@]5(O[C@@H](C=C(C)C)C[C@@H]5C)[C@@H]4C/C=C/1[C@H]32
- GI50 [2]: 500 nM
